{
  "source": "patent US8722719B2",
  "about": "“Amine compound and use for same” (Kureha Corporation, priority 2010, dated 2014)",
  "key": {"[1]": {"tested_on": "HIV-1 IIIB infected MT-4 cells", "test": "anti-HIV activity test (MTT viable cell count)", "assay_type": "cell-based", "settings": "Human immunodeficiency virus 1, MT4, 120 h, MOI 0.01, 5 days, MTT method, read-out: EC50 (concentration at which cellular damage due to HIV infection is inhibited by 50%)", "protocol": "In Test Example 1, the amine compound according to the present invention was subjected to the anti-HIV activity test. HIV-1 IIIB infected MT-4 cells (3.0×10^4 cells/well, MOI (multiplicity of infection): 0.01) were added to a 96-well microtiter plate together with the test compound (compound 1, A, or B) at a different concentration immediately after infection. After culturing the cells at 37° C. for 5 days using a carbon dioxide incubator, the number of viable cells was measured by the MTT (tetrazolium) method ([…] et al., J. Virol. Method, 20, 309-321, 1988)."}, "[2]": {"test": "oral absorption properties"}, "[3]": {"test": "hydrolysis in serum (background finding of the inventors)", "assay_type": "in vitro ADME", "settings": "species not stated"}},
  "data": [
    {"smiles": "CCCN(CCC)CCCCN(CCC(=O)OCCN(C)C)Cc1ccc(CN(Cc2ncc[nH]2)Cc2nccn2C)cc1", "note": "[Compound 1, 2-dimethylaminoethyl 3-[(4-dipropylaminobutyl)(4-{[(1H-imidazol-2-ylmethyl)(1-methyl-1H-imidazol-2-ylmethyl)amino]methyl}benzyl)amino]propionate]", "values": [
      {"measurement": "EC50", "setting": "[1]", "value": 3, "unit": "nM"}
    ]},
    {"smiles": "CCCN(CCC)CCCCN(CCC(=O)O)Cc1ccc(CN(Cc2ncc[nH]2)Cc2nccn2C)cc1", "note": "[Compound A, 3-[(4-dipropylaminobutyl)(4-{[(1H-imidazol-2-ylmethyl)(1-methyl-1H-imidazol-2-ylmethyl)amino]methyl}benzyl)amino]propionic acid]", "values": [
      {"measurement": "oral absorption properties", "setting": "[2]", "value": "poor oral absorption properties"},
      {"measurement": "EC50", "setting": "[1]", "value": 3, "unit": "nM"}
    ]},
    {"smiles": "CCCN(CCC)CCCCN(CCC(=O)OCC)Cc1ccc(CN(Cc2ncc[nH]2)Cc2nccn2C)cc1", "note": "[Compound B, ethyl 3-[(4-dipropylaminobutyl)(4-{[(1H-imidazol-2-ylmethyl)(1-methyl-1H-imidazol-2-ylmethyl)amino]methyl}benzyl)amino]propionate]", "values": [
      {"measurement": "hydrolysis in serum", "setting": "[3]", "value": "hydrolyzed to only a small extent in serum"},
      {"measurement": "EC50", "setting": "[1]", "value": 3, "unit": "nM"}
    ]}
  ]
}
